Measurements reported in patent US20100305036A1, “COMBINATION OF PROTEIN TYROSINE PHOSPHATASE INHIBITORS AND HUMAN GROWTH HORMONE FOR THE TREATMENT OF MUSCLE ATROPHY AND RELATED DISORDERS” (priority 2007, published 2010).

What was measured:
C2C12 myotubes = assay: C2C12 myotube diameter; type: cell-based
From the text: C2C12 cells can be obtained from the American Type Tissue Culture Bank and propagated in standard growth media containing 10% horse serum. When cells reached 70% confluency the media is changed to differentiation media containing 2% horse serum. Three days after start of differentiation multinucleated myotubes should be present, with visible striations, indicating differentiation. hGH can be used as a positive control for activating the IGF-1 receptor, or alternatively, combined with a PTP1B inhibitor to assess synergistic or additive effects. Consequently, PTP1B inhibitors and/or hGH can be added to the media for various times.
Myotube Diameter Myotube diameter can be assessed 24 hours after addition of PTP1B inhibitor and/or hGH to myotube media. Cells are washed in saline and fixed in gluteraldehyde. Images can be obtained on an inverted microscope using the green fluorescent channel to visualize the auto-fluorescence induced by the gluteraldehyde fixation. Images are printed out at standard magnification and the sixty largest myotubes measured at their largest diameter (as previously published). The fifty largest myotubes in each group can be statistically compared using the Kruskal-Wallis One Way Analysis on Ranks. Differences are considered significant if p<0.05 and designated by an asterisk in FIG. 1. […]

AKT phosphorylation = details: hGH treatment of C2C12; cited from earlier work

For “IGF1: human insulin-like growth factor1 or IGF1, however formulated or stabilized”, the myotube hypertrophy (C2C12 myotubes; IGF1 alone added to C2C12 myotubes media at 10 ng/ml) was “significantly hypertrophied”.
In the case of “hGH: Human Growth Hormone, can be purchased from Bachem H-3148”, the C2C12 myotube diameter (C2C12 myotubes; hGH alone) is listed as “significant increase” and the AKT phosphorylation (AKT phosphorylation) is listed as “cause AKT phosphorylation”.
